What was measured:
[1] = test system: valve interstitial cells (VICs); assay: In vitro calcification of isolated valve interstitial cells (calcium by Arsenazo III method); format: cell-based; settings: isolated human VICs, pro-calcifying medium 7 days; FIG. 2A/2B
Method: In isolated cells, calcium was measured by the Arsenazo III method (Côte N, et al. J Mol Cell Cardiol 2012;52:1191-202) and results reported as percent changes.
(§1) Human valve interstitial cells (VICs) were isolated by collagenase digestion. To provoke calcification, cells were incubated for 7 days with a pro-calcifying medium containing: DMEM+5% FBS, 10^−7 M insulin, 50 μg /ml ascorbic acid and NaH2PO4 at 2 mM.

[2] = test system: Runx2, osteocalcin; assay: Real-time PCR expression of Runx2 and osteocalcin in isolated VICs; format: cell-based, Human; settings: q-PCR normalized to HPRT, FIG. 2C
Method: RNA was also extracted from AS valves and cells during in vitro experiments. Total RNA was isolated with RNeasy micro kit from Qiagen (Qiagen, Mississauga, Ont, Canada). The RNA extraction protocol was performed according to manufacturer's instructions using 100 mg of tissue. The quality of total RNA was monitored by capillary electrophoresis (Experion, Biorad, Mississauga, Ont, Canada). Four (4) μg of RNA was reverse transcribed using the Quantitec Reverse Transcription Kit from Qiagen. Quantitative real-time PCR (q-PCR) was performed with Quantitec SYBR Green PCR kit from Qiagen in the Rotor-Gene 6000 system (Corbett Robotics Inc, San Francisco, Calif., USA). The following primers were obtained from (Invitrogen, Burlington, Ont, Canada): P2Y2, Runx2, osteocalcin. The expression of hypoxanthine-guanine phosphoribosyltransferase (HPRT) (Invitrogen, Burlington, On, Canada) as a reference gene was chosen to normalize the results.
as §1

SMILES: Cc1ccc(C(=O)Nc2ccc(S(=O)(=O)O)c3cc(S(=O)(=O)O)cc(S(=O)(=O)O)c23)cc1NC(=O)c1cccc(NC(=O)Nc2cccc(C(=O)Nc3cc(C(=O)Nc4ccc(S(=O)(=O)O)c5cc(S(=O)(=O)O)cc(S(=O)(=O)O)c45)ccc3C)c2)c1 [suramin]
- calcification of isolated VICs [1]: increased calcification

SMILES: O=c1ccn([C@@H]2O[C@H](COP(=O)(O)OP(=O)(O)OP(=O)(O)O)[C@@H](O)[C@H]2O)c(=S)[nH]1 [2-thioUTP]
- calcification of isolated VICs [1]: reduced significantly calcification
- expression of osteocalcin [2]: decreased the expression
- expression of the bone transcription factor, Runx2 [2]: decreased the expression

Source: patent US20130090303A1, “Agonists of PY2Y Receptor as a Treatment for Aortic Stenosis and Cardiovascular Calcification” (UNIVERSITE LAVAL, priority 2011, published 2013)
